Laboratory results reported in the supplement of paper PMC5908809.

Assays:
[1] = system: normal NK cells expanded with K562-aAPC; assay: drug sensitivity score (DSS) (DSS units); higher = more sensitive; extreme values may be limits of the assay; settings: 72 h; IL-2 2.5 ng/mL
Description: (§1)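 Drug sensitivity and resistance testing on K562-aAPC-expanded normal NK cells: 5 concentrations (10-fold steps over a 10,000-fold range), 72 h at 37 °C, viability by CellTiter-Glo normalised to DMSO and benzethonium chloride controls; DSS from the fitted curve.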

DERL-7 (IL-2 2.5 ng/mL) [2] = assay: percent inhibition of viability; higher = more inhibition; settings: 72 h
[3] = system: normal primary NK cells, pool 1 (3 donors) (IL-2 2.5 ng/mL); assay: as above; settings: 72 h
NKL (IL-2 2.5 ng/mL) [4] = assay: as above; settings: 72 h
[5] = system: normal primary NK cells, pool 1 (3 donors), resting (IL-2 0 ng/mL); assay: as above; settings: 72 h
SNK-6 (IL-2 2.5 ng/mL) [6] = assay: as above; settings: 72 h
[7] = system: normal primary NK cells, pool 3 (3 donors) (IL-2 2.5 ng/mL); assay: as above; settings: 72 h
KAI3 (IL-2 2.5 ng/mL) [8] = assay: as above; settings: 72 h
YT (IL-2 2.5 ng/mL) [9] = assay: as above; settings: 72 h
KHYG-1 (IL-2 2.5 ng/mL) [10] = assay: as above; settings: 72 h
IMC-1 (IL-2 20 ng/mL) [11] = assay: as above; settings: 72 h
NK-YS (IL-2 2.5 ng/mL) [12] = assay: as above; settings: 72 h
[13] = system: normal primary NK cells, pool 2 (3 donors) (IL-2 2.5 ng/mL); assay: as above; settings: 72 h
NK-92 (IL-2 2.5 ng/mL) [14] = assay: as above; settings: 72 h
[15] = system: normal NK cells expanded with K562-aAPC; assay: as above; settings: 72 h, IL-2 2.5 ng/mL
Description: as §1

DERL-7 (IL-2 2.5 ng/mL) [16] = assay: drug sensitivity score (DSS) (DSS units); higher = more sensitive; extreme values may be limits of the assay; settings: 72 h
[17] = system: normal primary NK cells, pool 1 (3 donors) (IL-2 2.5 ng/mL); assay: as above; settings: 72 h
NKL (IL-2 2.5 ng/mL) [18] = assay: as above; settings: 72 h
[19] = system: normal primary NK cells, pool 1 (3 donors), resting (IL-2 0 ng/mL); assay: as above; settings: 72 h
SNK-6 (IL-2 2.5 ng/mL) [20] = assay: as above; settings: 72 h
[21] = system: normal primary NK cells, pool 3 (3 donors) (IL-2 2.5 ng/mL); assay: as above; settings: 72 h
KAI3 (IL-2 2.5 ng/mL) [22] = assay: as above; settings: 72 h
YT (IL-2 2.5 ng/mL) [23] = assay: as above; settings: 72 h
KHYG-1 (IL-2 2.5 ng/mL) [24] = assay: as above; settings: 72 h
IMC-1 (IL-2 20 ng/mL) [25] = assay: as above; settings: 72 h
NK-YS (IL-2 2.5 ng/mL) [26] = assay: as above; settings: 72 h
[27] = system: normal primary NK cells, pool 2 (3 donors) (IL-2 2.5 ng/mL); assay: as above; settings: 72 h
NK-92 (IL-2 2.5 ng/mL) [28] = assay: as above; settings: 72 h

O=C(NC1CCNCC1)c1n[nH]cc1NC(=O)c1c(Cl)cccc1Cl [AT7519] (max concentration tested 10000 nM)
Settings	drug sensitivity score
DERL-7 (IL-2 2.5 ng/mL) [16]	17.3
IMC-1 (IL-2 20 ng/mL) [25]	17.4
KAI3 (IL-2 2.5 ng/mL) [22]	16.3
KHYG-1 (IL-2 2.5 ng/mL) [24]	12.7
NK-92 (IL-2 2.5 ng/mL) [28]	9.5
NK-YS (IL-2 2.5 ng/mL) [26]	18.9
NKL (IL-2 2.5 ng/mL) [18]	20.3
SNK-6 (IL-2 2.5 ng/mL) [20]	9.33
YT (IL-2 2.5 ng/mL) [23]	15.6
[1]	17.5
[17]	18.6
[19]	15.1
[21]	16.8
[27]	17.2

percent inhibition of viability [%]
Settings	1 nM	10 nM	100 nM	1000 nM	10000 nM
DERL-7 (IL-2 2.5 ng/mL) [2]	3.68	-3.37	-6.6	99.2	100
IMC-1 (IL-2 20 ng/mL) [11]	5.46	1.26	-0.14	96.8	96.4
KAI3 (IL-2 2.5 ng/mL) [8]	1.05	-1.69	4.7	86.2	94
KHYG-1 (IL-2 2.5 ng/mL) [10]	-2.18	-4.7	1.67	61.9	96.3
NK-92 (IL-2 2.5 ng/mL) [14]	-10.5	-1.16	-2.58	32.2	90.7
NK-YS (IL-2 2.5 ng/mL) [12]	-2.23	-4.04	9.45	96.6	93.7
NKL (IL-2 2.5 ng/mL) [4]	1.32	5.88	13.8	102	97.5
SNK-6 (IL-2 2.5 ng/mL) [6]	6.43	-7.68	0.7	50.8	48.4
YT (IL-2 2.5 ng/mL) [9]	0.46	-3.64	6.82	79.9	97
[3]	-13.5	-8.03	6.78	96.9	97.9
[5]	-42.2	-37.4	-20.6	90.1	89.6
[7]	-13.9	-11.2	-5.85	94.7	98.8
[13]	-5.51	-3.1	0.18	95.2	95.8
[15]	-3.7	0.1	-4.47	99.1	100
